# Assay results reported in patent publication US10538555B2, “Macrocyclic inhibitors of the PD-1/PD-L1 and CD80(B7-1)/PD-L1 protein/protein interactions” (BRISTOL-MYERS SQUIBB COMPANY, priority 2014, dated 2020).
# *1 amine or outer side, *2 acyl side, *3 side chain or, on linkers, in order; H or OH if unused. Where a SMILES comes first, the peptide text is derived from it. Bridges are numbered along the chain shown (N, C = ends). [ ]: non-standard residue; d: D form. ξ: configuration not given here. Trp(1-CH2COOH) = N[C@@H](Cc1cn(CC(=O)O)c2ccccc12)C(=O)O; Phe(3,4,5-F3) = N[C@@H](Cc1cc(F)c(F)c(F)c1)C(=O)O; NMePhe(4-F) = CN[C@@H](Cc1ccc(F)cc1)C(=O)O; Phe(4-F) = N[C@@H](Cc1ccc(F)cc1)C(=O)O; d(cisHyp) = O=C(O)[C@H]1C[C@@H](O)CN1; Bta = N[C@@H](Cc1csc2ccccc12)C(=O)O; NMeY = CN[C@@H](Cc1ccc(O)cc1)C(=O)O; Hyp = O=C(O)[C@@H]1C[C@@H](O)CN1; NMeF = CN[C@@H](Cc1ccccc1)C(=O)O; dPip(4-aza) = O=C(O)[C@H]1CNCCN1; NMehSer = CN[C@@H](CCO)C(=O)O; NMeNle = CCCC[C@H](NC)C(=O)O; Tle = CC(C)(C)[C@H](N)C(=O)O; dPip = O=C(O)[C@H]1CCCCN1; hSer = N[C@@H](CCO)C(=O)O; NMeA = CN[C@@H](C)C(=O)O; Dab = NCC[C@H](N)C(=O)O; Dap = NC[C@H](N)C(=O)O; CO = O=C([*:1])[*:2]; ξP = O=C(O)C1CCCN1; ξC = NC(CS)C(=O)O
# Target: T1, Human PD-L1/PD-1 (Homo sapiens, UniProt Q9NZQ7)
# T1 construct: TVMV protease cleavage site (C); made in house; host or cells: HEK293T cells
# Test: HTRF Human PD-L1/PD-1 binding assay (PD-1-Ig/PD-L1-His)
# Conditions: PD-L1-His 10 nM, PD-1-Ig 20 nM; class symbol; read-out: HTRF Human PD-L1/PD-1 Binding Assay IC50 Range
# Summary of the method: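 Soluble HEK293T-expressed proteins: hPD-L1-His 10 nM, hPD-1-Ig 20 nM final. Cpd + PD-L1 15 min, + PD-1 15 min, + Eu anti-Ig 1 nM/APC anti-His 20 nM 30 min. Buffer dPBS, 0.1% BSA, 0.05% Tween-20. TR-FRET 665/620.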
# T1 sequence (Q9NZQ7 with tags, fused parts or gaps): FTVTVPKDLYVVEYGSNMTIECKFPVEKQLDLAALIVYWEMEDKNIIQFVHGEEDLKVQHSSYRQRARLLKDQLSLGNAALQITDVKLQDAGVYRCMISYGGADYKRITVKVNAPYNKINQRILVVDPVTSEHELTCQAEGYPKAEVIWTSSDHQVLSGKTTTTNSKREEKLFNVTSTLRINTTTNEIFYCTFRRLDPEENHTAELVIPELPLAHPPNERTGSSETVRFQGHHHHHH
row,IC50,SMILES
1,1 to 9.9 nM,CCCC[C@H]1C(=O)N(C)[C@@H](CCCC)C(=O)N[C@@H](C)C(=O)NC(C(=O)NCC(N)=O)CSCC(=O)N[C@@H](Cc2ccc(O)cc2)C(=O)N(C)[C@@H](C)C(=O)N[C@@H](CC(N)=O)C(=O)N2CCC[C@H]2C(=O)N[C@@H](CC(N)=O)C(=O)N[C@@H](CC(C)C)C(=O)N2C[C@H](O)C[C@H]2C(=O)N[C@@H](Cc2c[nH]c3ccccc23)C(=O)N[C@@H](CO)C(=O)N[C@@H](Cc2csc3ccccc23)C(=O)N1C (stereo partly drawn) [Example 9135] ({CH2CO}-Y[NMeA]NPNL[Hyp]WS[Bta][NMeNle][NMeNle]A[ξC]G-NH2; thioether N-14)
2,1 to 9.9 nM,CCCC[C@H]1C(=O)N(C)[C@@H](CCCC)C(=O)N[C@@H](CCC(=O)O)C(=O)N[C@H](C(=O)NCC(N)=O)CSCC(=O)N[C@@H](Cc2ccc(O)cc2)C(=O)N(C)[C@@H](C)C(=O)N[C@@H](CC(N)=O)C(=O)N2CCC[C@H]2C(=O)N[C@@H](Cc2cnc[nH]2)C(=O)N[C@@H](CCC(=O)O)C(=O)N2C[C@H](O)C[C@H]2C(=O)N[C@@H](Cc2c[nH]c3ccccc23)C(=O)N[C@@H](CCN)C(=O)N[C@@H](Cc2cn(CC(=O)O)c3ccccc23)C(=O)N1C [Example 6134] ({CH2CO}-Y[NMeA]NPHE[Hyp]W[Dab][Trp(1-CH2COOH)][NMeNle][NMeNle]ECG-NH2; thioether N-14)
3,1 to 9.9 nM,CCCC[C@H]1C(=O)N(C)[C@@H](CCCC)C(=O)N[C@@H](CCC(=O)O)C(=O)N[C@H](C(=O)NCC(N)=O)CSCC(=O)N[C@@H](Cc2ccc(O)cc2)C(=O)N(C)[C@@H](C)C(=O)N[C@@H](CC(N)=O)C(=O)N2CCCC2C(=O)N[C@@H](CO)C(=O)N[C@@H](CC(C)C)C(=O)N2C[C@H](O)C[C@H]2C(=O)N[C@@H](Cc2c[nH]c3ccccc23)C(=O)N[C@@H](CO)C(=O)N[C@@H](Cc2cn(CC(=O)O)c3ccccc23)C(=O)N1C (stereo partly drawn) [Example 6250] ({CH2CO}-Y[NMeA]N[ξP]SL[Hyp]WS[Trp(1-CH2COOH)][NMeNle][NMeNle]ECG-NH2; thioether N-14)
4,10 to 99.9 nM,CCCC[C@H]1C(=O)N(C)[C@@H](CCOC)C(=O)N[C@@H](CC(C)C)C(=O)N[C@H](C(=O)NCC(N)=O)CSCC(=O)N[C@@H](Cc2ccc(O)cc2)C(=O)N(C)[C@@H](C)C(=O)N[C@@H](CCN)C(=O)N2CCC[C@H]2C(=O)N[C@@H](Cc2c[nH]cn2)C(=O)N[C@@H](CCC(=O)O)C(=O)N2C[C@H](O)C[C@H]2C(=O)N[C@@H](Cc2c[nH]c3ccccc23)C(=O)N[C@@H](CO)C(=O)N[C@@H](Cc2c[nH]c3ccccc23)C(=O)N1C [Example 10146] ({CH2CO}-Y[NMeA][Dab]PHE[Hyp]WSW[NMeNle][NMehSer](Me)LCG-NH2; thioether N-14)
5,1 to 9.9 nM,"CCCC[C@H]1C(=O)N2C[C@H](O)C[C@@H]2C(=O)N[C@@H](CC(=O)O)C(=O)N[C@@H](C(C)C)C(=O)N(C)[C@@H](Cc2ccccc2)C(=O)N[C@@H](CC(=O)O)C(=O)N2CCC[C@@H]2C(=O)N[C@@H](Cc2c[nH]c3ccccc23)C(=O)N[C@@H](Cc2ccc(O)cc2)C(=O)N[C@@H](CCO)C(=O)N[C@H](C(=O)NCC(N)=O)CSCC(=O)N[C@@H](Cc2cc(F)c(F)c(F)c2)C(=O)N(C)[C@@H](Cc2ccccc2)C(=O)N1C [Example 10155] ({CH2CO}-[Phe(3,4,5-F3)][NMeF][NMeNle][d(cisHyp)]DV[NMeF]D[dP]WY[hSer]CG-NH2; thioether N-13)"
6,10 to 99.9 nM,CCCC[C@H]1C(=O)N(C)[C@@H](CCCC)C(=O)N[C@@H](CO)C(=O)NC(C(=O)NCC(N)=O)CSCC(=O)N[C@@H](Cc2ccc(O)cc2)C(=O)N(C)[C@@H](C)C(=O)N[C@@H](CC(N)=O)C(=O)N2CCC[C@H]2C(=O)N[C@@H](CC(N)=O)C(=O)N[C@@H](CC(C)C)C(=O)N2C[C@H](O)C[C@H]2C(=O)N[C@@H](Cc2c[nH]c3ccccc23)C(=O)N[C@@H](CO)C(=O)N[C@@H](Cc2csc3ccccc23)C(=O)N1C (stereo partly drawn) [Example 9143] ({CH2CO}-Y[NMeA]NPNL[Hyp]WS[Bta][NMeNle][NMeNle]S[ξC]G-NH2; thioether N-14)
7,10 to 99.9 nM,CCCC[C@H]1C(=O)N2CCC[C@@H]2C(=O)N[C@@H](CC(=O)O)C(=O)N[C@@H](C(C)C)C(=O)N(C)[C@@H](Cc2ccc(F)cc2)C(=O)N[C@@H](CCN)C(=O)N2CCC[C@@H]2C(=O)N[C@@H](Cc2c[nH]c3ccccc23)C(=O)N[C@@H](Cc2ccc(O)cc2)C(=O)N[C@@H](CC(C)C)C(=O)N[C@H](C(=O)NCC(N)=O)CSCC(=O)N[C@@H](Cc2ccc(F)cc2)C(=O)N(C)[C@@H](Cc2ccccc2)C(=O)N1C [Example 10109] ({CH2CO}-[Phe(4-F)][NMeF][NMeNle][dP]DV[NMePhe(4-F)][Dab][dP]WYLCG-NH2; thioether N-13)
8,10 to 99.9 nM,CCCC[C@H]1C(=O)N(C)[C@@H](C)C(=O)N[C@@H](CCCNC(=N)N)C(=O)NC(C(=O)NCC(N)=O)CSCC(=O)N[C@@H](Cc2ccc(O)cc2)C(=O)N(C)[C@@H](C)C(=O)N[C@@H](CC(N)=O)C(=O)N2CCC[C@H]2C(=O)N[C@@H](Cc2cnc[nH]2)C(=O)N[C@H](CO)C(=O)N2CCC[C@H]2C(=O)N[C@@H](Cc2c[nH]c3ccccc23)C(=O)N[C@@H](CO)C(=O)N[C@@H](Cc2c[nH]c3ccccc23)C(=O)N1C (stereo partly drawn) [Example 9117] ({CH2CO}-Y[NMeA]NPH[dS]PWSW[NMeNle][NMeA]R[ξC]G-NH2; thioether N-14)
9,1 to 9.9 nM,CCCC[C@H]1C(=O)N(C)[C@@H](CCCC)C(=O)N[C@@H](CCCNC(=N)N)C(=O)NC(C(=O)NCC(N)=O)CSCC(=O)N[C@@H](Cc2ccc(O)cc2)C(=O)N(C)[C@@H](C)C(=O)N[C@@H](CC(N)=O)C(=O)N2CCC[C@H]2C(=O)N[C@@H](CCO)C(=O)N[C@@H](CCO)C(=O)N2C[C@H](O)C[C@H]2C(=O)N[C@@H](Cc2c[nH]c3ccccc23)C(=O)N[C@@H](CO)C(=O)N[C@@H](Cc2c[nH]c3ccccc23)C(=O)N1C (stereo partly drawn) [Example 10043] ({CH2CO}-Y[NMeA]NP[hSer][hSer][Hyp]WSW[NMeNle][NMeNle]R[ξC]G-NH2; thioether N-14)
10,10 to 99.9 nM,CCCC[C@H]1C(=O)N(C)[C@@H](CCCC)C(=O)N[C@@H](CNC(=O)O)C(=O)N[C@H](C(=O)NCC(N)=O)CSCC(=O)N[C@@H](Cc2ccc(O)cc2)C(=O)N(C)[C@@H](C)C(=O)N[C@@H](CC(=O)O)C(=O)N2CCC[C@H]2C(=O)N[C@@H](CN)C(=O)N[C@@H](CCC(=O)O)C(=O)N2C[C@H](O)C[C@H]2C(=O)N[C@@H](Cc2c[nH]c3ccccc23)C(=O)N[C@@H](CCC(=O)O)C(=O)N[C@@H](Cc2c[nH]c3ccccc23)C(=O)N1C [Example 5154] ({CH2CO}-Y[NMeA]DP[Dap]E[Hyp]WEW[NMeNle][NMeNle][Dap](CO)CG-NH2; thioether N-14)
11,1000 to 10000 nM,CCCC[C@H]1C(=O)N[C@@H](CC(N)=O)C(=O)N2CCC[C@H]2CN[C@@H](CO)C(=O)N[C@@H](CCO)C(=O)N2CCC[C@H]2C(=O)N[C@@H](Cc2c[nH]c3ccccc23)C(=O)N[C@@H](CCN)C(=O)N[C@@H](Cc2c[nH]c3ccccc23)C(=O)N(C)[C@@H](C)C(=O)N(C)[C@@H](C)C(=O)N[C@@H](CCCNC(=N)N)C(=O)NC(C(=O)NCC(N)=O)CSCC(=O)N[C@@H](Cc2ccc(O)cc2)C(=O)N1C (stereo partly drawn) [Example 10197]
12,10 to 99.9 nM,"CCCC[C@H]1C(=O)N2CCC[C@@H]2C(=O)N[C@@H](CC(=O)O)C(=O)N[C@@H](C(C)C)C(=O)N(C)[C@@H](Cc2ccccc2)C(=O)N[C@@H](CCC(=O)O)C(=O)N2C[C@H](O)C[C@@H]2C(=O)N[C@@H](Cc2c[nH]c3ccccc23)C(=O)N[C@@H](Cc2ccc(O)cc2)C(=O)N[C@@H](CC(C)C)C(=O)N[C@H](C(=O)NCC(N)=O)CSCC(=O)N[C@@H](Cc2cc(F)c(F)c(F)c2)C(=O)N(C)[C@@H](Cc2ccc(O)cc2)C(=O)N1C [Example 10629] ({CH2CO}-[Phe(3,4,5-F3)][NMeY][NMeNle][dP]DV[NMeF]E[d(cisHyp)]WYLCG-NH2; thioether N-13)"
13,1 to 9.9 nM,CCCC[C@H]1C(=O)N(C)[C@@H](CCCC)C(=O)N[C@@H](CCCNC(=N)N)C(=O)NC(C(=O)NCC(N)=O)CSCC(=O)N[C@@H](Cc2ccc(O)cc2)C(=O)N(C)[C@@H](C)C(=O)N[C@@H](Cc2cnc[nH]2)C(=O)N2CCC[C@H]2C(=O)N[C@@H](CC(N)=O)C(=O)N[C@@H](CC(C)C)C(=O)N2C[C@H](O)C[C@H]2C(=O)N[C@@H](Cc2c[nH]c3ccccc23)C(=O)N[C@@H](CO)C(=O)N[C@@H](Cc2c[nH]c3ccccc23)C(=O)N1C (stereo partly drawn) [Example 9146] ({CH2CO}-Y[NMeA]HPNL[Hyp]WSW[NMeNle][NMeNle]R[ξC]G-NH2; thioether N-14)
14,10 to 99.9 nM,"CCCC[C@H]1C(=O)N2C[C@H](O)C[C@@H]2C(=O)N[C@@H](CC(=O)O)C(=O)N[C@@H](C(C)C)C(=O)N(C)[C@@H](Cc2ccccc2)C(=O)N[C@@H](CCC(=O)O)C(=O)N2CCNC[C@@H]2C(=O)N[C@@H](Cc2c[nH]c3ccccc23)C(=O)N[C@@H](Cc2ccc(O)cc2)C(=O)N[C@@H](CC(C)C)C(=O)N[C@H](C(=O)NCC(N)=O)CSCC(=O)N[C@@H](Cc2cc(F)c(F)c(F)c2)C(=O)N(C)[C@@H](Cc2ccccc2)C(=O)N1C [Example 10163] ({CH2CO}-[Phe(3,4,5-F3)][NMeF][NMeNle][d(cisHyp)]DV[NMeF]E[dPip(4-aza)]WYLCG-NH2; thioether N-13)"

# Same assay, conditions: PD-L1-His 10 nM, PD-1-Ig 20 nM; read-out: HTRF Human PD-L1/PD-1 Binding Assay IC50
row,IC50,SMILES
1,4.5 nM,"CCCC[C@H]1C(=O)N2CCC[C@@H]2C(=O)N[C@@H](CC(=O)O)C(=O)N[C@@H](C(C)(C)C)C(=O)N(C)[C@@H](Cc2ccccc2)C(=O)N[C@@H](Cc2ccc(O)cc2)C(=O)N2CCCC[C@@H]2C(=O)N[C@@H](Cc2c[nH]c3ccccc23)C(=O)N[C@@H](Cc2ccc(O)cc2)C(=O)N[C@@H](CC(C)C)C(=O)N[C@H](C(=O)NCC(N)=O)CSCC(=O)N[C@@H](Cc2cc(F)c(F)c(F)c2)C(=O)N(C)[C@@H](Cc2ccccc2)C(=O)N1C [Example 3222] ({CH2CO}-[Phe(3,4,5-F3)][NMeF][NMeNle][dP]D[Tle][NMeF]Y[dPip]WYLCG-NH2; thioether N-13)"
